Paper PMC8765310, “Metabolism, Excretion, and Mass Balance of [^14C]-Rezafungin in Animals and Humans” (Antimicrobial Agents and Chemotherapy, 2022)
*1 amine or outer side, *2 acyl side, *3 side chain or, on linkers, in order; H or OH if unused. Where a SMILES comes first, the peptide text is derived from it. Bridges are numbered along the chain shown (N, C = ends). [ ]: non-standard residue; d: D form. The star is where a group is joined. Orn(4R-OH,5R-OCH2CH2NMe3+) = C[N+](C)(C)CCO[C@@H](N[*:3])[C@H](O)C[C@H](N[*:1])C(=O)[*:2]; pTerphenylCO(4''-OnC5H11) = CCCCCOc1ccc(-c2ccc(-c3ccc(C(=O)*)cc3)cc2)cc1; hTyr(3S-OH,4S-OH) = N[C@H](C(=O)O)[C@H](O)[C@@H](O)c1ccc(O)cc1; Pro(3S-OH,4S-Me) = C[C@H]1CN[C@H](C(=O)O)[C@H]1O; Hyp = O=C(O)[C@@H]1C[C@@H](O)CN1

How the values were obtained:
[1] = Clinical safety in the human mass balance study; type: in vivo; conditions: single IV 400-mg infusion
Procedure: (i) Study design. This was an open-label, phase I, single-dose mass balance study. The study was conducted at Labcorp (formerly, Covance, Inc.; Madison, WI) in accordance with good clinical practice, including ICH guidelines and applicable regulatory requirements, and in general conformity with the Declaration of Helsinki. No animal work was conducted by Labcorp. All pertinent study documents were reviewed by the Institutional Review Board (IRB) prior to study initiation. Following IRB approval and collection of written informed consent, all the subjects underwent an initial screening assessment within 28 days of the first dose. Safety was assessed by vital signs, physical examinations, AE assessments, laboratory tests (chemistry, hematology, and urinalysis), and a 12-lead electrocardiogram.

[2] = Rat excretion/mass balance of [14C]-rezafungin; type: in vivo, Sprague-Dawley rats; conditions: LSC; for Radioactivity recovered in feces: mean
Procedure: (§1) (i) Rat study design. The study used 12 male Sprague-Dawley rats, each administered a bolus IV injection into the tail vein over approximately 3–4 min of 15 mg/kg of rezafungin (with a target radioactivity of 200 μCi/kg of [^14C]-rezafungin). Three of the rats were bile duct cannulated. Whole blood/plasma, urine, feces/bile, and cage washings were collected at periodic intervals from noncannulated rats until euthanization at 336 h postdose and from bile duct cannulated rats until euthanization at 120 h postdose as that was the duration that the patency of bile duct cannulae could be maintained. Carcasses were collected at the time of euthanization. All samples were analyzed for drug-derived radioactivity by liquid scintillation counting.
(§2) (iii) Sample analysis. Whole blood and fecal homogenates were combusted prior to analysis by liquid scintillation counting (LSC). Blood, plasma, bile, urine, cage rinse/wash, and fecal homogenate samples were mixed with scintillation fluid and analyzed for radioactivity by LSC. Rat carcasses were dissolved in potassium hydroxide, and the resulting digests were mixed with scintillation fluid and analyzed for radioactivity by LSC.

[3] = Monkey blood and plasma radioactivity pharmacokinetics; type: in vivo, cynomolgus monkeys
Procedure: (ii) Monkey study design. The study used 3 male cynomolgus monkeys, each administered a single 10 mg/kg IV dose of [^14C]-rezafungin (with a target radioactivity of 100 μCi/kg of [^14C]-rezafungin) by infusion into a saphenous vein over 20 min. Whole blood and plasma samples were collected at each of the following time points: predose, 0.5, 2, 4, 8, 24, 48, 96 120, 144, 168, 240, 480, 720, and 1440 h postdose. Urine, feces, and cage washings were collected at predose (urine/feces only) and daily 24-h collections for 30 days.
as §2

[4] = cited from earlier work
Excerpt: All three of the previously approved echinocandins (caspofungin, micafungin, and anidulafungin) are believed to undergo spontaneous chemical (non-enzymatic) degradation to a ring-opened peptide as their primary clearance mechanism ([18]). […] While protein binding is generally considered a factor in evaluation of half-life, rezafungin and the ...

[5] = Rat metabolite profiling (LC-MS with radioactivity detection); type: in vivo, Sprague-Dawley rats; conditions: pooled samples, IV 15 mg/kg
Procedure: as §1
(iv) Metabolite profiling. The metabolite identification and urine profiling were achieved using pooled samples by equal percent weight of samples (urine, bile, feces) or by equal volume (50 μl) aliquots of each plasma sample across all time points/intervals. The urine, plasma, bile, and fecal samples were analyzed using liquid chromatography tandem mass spectrometry (LC-MS) coupled with a radioactivity flow-through detector for metabolite profiling and identification. Tandem MS experiments were performed, and the structures of the metabolites were proposed based on their MS/MS spectra. The proposed structures were confirmed by comparison of the retention times and product ion spectra with the authentic reference standards when possible.

[6] = Human metabolite profiling (HPLC with radiochemical and HRMS detection); type: in vivo; conditions: 400 mg IV
Procedure: (iv) Metabolite profiling. Plasma samples were pooled across subjects through 672 h postdose to produce inter-subject time point pools. Urine and fecal homogenate samples were pooled by subject across various time points up through 408 and 672 h postdose, respectively. Selected samples of plasma, urine, and feces were profiled for rezafungin and metabolites by HPLC with radiochemical and high-resolution mass spectrometry detection; metabolites were identified by HPLC with known standards and/or by HPLC-MS/MS structure elucidation. Pharmacokinetics were calculated by non-compartmental analysis using Phoenix WinNonlin software (version 6.3/8.1; Pharsight, Mountain View, CA).

[7] = bile duct cannulated rats, IV 15 mg/kg, until 120 h postdose, average
[8] = intact rats, IV 15 mg/kg, through 336 h postdose, average

Compound: CCCCCOc1ccc(-c2ccc(-c3ccc(C(=O)N[C@H]4C[C@@H](O)[C@@H](OCC[N+](C)(C)C)NC(=O)[C@@H]5[C@@H](O)[C@@H](C)CN5C(=O)[C@H]([C@@H](C)O)NC(=O)[C@H]([C@H](O)[C@@H](O)c5ccc(O)cc5)NC(=O)[C@@H]5C[C@@H](O)CN5C(=O)[C@H]([C@@H](C)O)NC4=O)cc3)cc2)cc1 [rezafungin] ({pTerphenylCO(4''-OnC5H11)}-[Orn(4R-OH,5R-OCH2CH2NMe3+)]T[Hyp][hTyr(3S-OH,4S-OH)]T[Pro(3S-OH,4S-Me)]; lactam 1-C)
- Treatment-emergent adverse events (TEAEs) reported, total number ([1]; 9 healthy male subjects): 13
- Deaths, SAEs ([1]; 9 subjects): no deaths or other SAEs
- Laboratory assessments, vital signs, ECGs, physical examinations ([1]; 9 subjects): no clinically relevant treatment-related findings
- Severe TEAEs ([1]; 9 subjects): no severe TEAEs
- Subjects with diarrhea (most common TEAE) ([1]; of 9 subjects): two
- Radioactivity recovered in feces ([2]; bile duct cannulated rats (n = 3), single IV 15 mg/kg, until 120 h postdose): 35 % of the administered dose
- Radioactivity recovered in the carcass ([2]; bile duct cannulated rats, IV 15 mg/kg, euthanized at 120 h postdose, average): 30 % of the administered dose
- Average total recovery of radioactivity ([2]; bile duct cannulated rats, IV 15 mg/kg, until 120 h postdose): 98 % of the administered dose
- Radioactivity recovered in bile [2, 7]: 17 % of the administered dose
- Radioactivity recovered in cage residues [2, 7]: 1.2 % of the administered dose
- Radioactivity recovered in feces ([2]; intact (non-bile duct cannulated) male rats, single IV bolus 15 mg/kg (200 μCi/kg), through 336 h postdose): 70 % of the administered dose
- Radioactivity recovered in the carcass ([2]; intact rats, IV 15 mg/kg, at 336 h postdose, average): 7.9 % of the administered dose
- Radioactivity recovered in cage residues [2, 8]: 2.5 % of the administered dose
- Radioactivity recovered in urine [2, 8]: 14 % of the administered dose
- t1/2 of plasma total radioactivity ([3]; monkey, IV [14C]-rezafungin 10 mg/kg, mean plasma concentrations): 170 h
- Ratio of blood-to-plasma AUC (radioactivity) ([3]; monkeys, 10 mg/kg IV): approximately 1
- Time of maximum blood and plasma radioactivity concentrations ([3]; monkeys, single IV 20-min infusion 10 mg/kg, first postdose sample): 0.5 h
- Protein binding [4]: 97.4%
- Radioactive component in feces and bile ([5]; rat feces and bile): predominant radioactive component
- Share of total plasma radioactivity exposure ([5]; rat plasma, LC-MS with radio-detection): 56%
- Share of total recovered radioactivity in feces ([6]; human feces pooled by subject through 672 h postdose): 90%
- Share of total plasma radioactivity exposure ([6]; human plasma pooled across subjects through 672 h postdose, HPLC radio/HRMS): 69%
- Share of total recovered radioactivity in urine ([6]; human urine pooled by subject through 408 h postdose): negligible
